Assays:
[1] = molecular target: T1, EP2 (Homo sapiens (Human), UniProt P43116); assay: EP2 cAMP functional assay; type: cell-based
[2] = molecular target: T1, EP2; assay: EP2 radioligand competition binding ([3H]PGE2); conditions: HEK-293 cells stably expressing receptor, [3H]PGE2 radioligand
Protocol: Competition binding experiments were performed in a medium containing Hank's balanced salt solution, Hepes 20 mM, pH 7.3, membranes (˜60 μg protein) or 2×10^5 cells from HEK 293 cells stably expressing human EP2 receptors, [^3H]PGE2 (10 nM) and various concentrations of test compounds in a total volume of 300 μl. Reaction mixtures were incubated at 23° C. for 60 min, and were filtered over Whatman GF/B filters under vacuum. Filters were washed three times with 5 ml ice-cold buffer containing 50 mM Tris/HCl (pH 7.3). Non-specific binding was estimated in the presence of excess unlabeled PGE2 (10 μM). Binding data fitted to the binding model for a single class of binding sites, using nonlinear regression analysis. IC50 values thus obtained were converted to Ki using the equation of Ki=(IC50/(1+[L]/KD) where [L] represents PGE2 concentration (10 nM) and KD the dissociation constant for [^3H]PGE2 at human EP2 receptors (40 nM). […]
The cell homogenate was centrifuged at 19000 r.p.m. for 20 min at 4° C. using a Beckman Ti-60 rotor. The resultant pellet was resuspended in TME buffer to give a final 1 mg/ml protein concentration, as determined by Biorad assay. […]
[^3H—] […] 17-phenyl PGF2a and non-specific binding determined with 10^−5M of unlabeled PGE2, or 17-phenyl PGF2a, according to receptor subtype studied.

[3] = molecular target: T2, EP4 (Homo sapiens (Human), UniProt P35408); assay: EP4 cAMP functional assay; type: cell-based
[4] = molecular target: T2, EP4; assay: EP4 radioligand competition binding ([3H]PGE2); conditions: HEK-293 cells stably expressing receptor, [3H]PGE2 radioligand
Protocol: HEK-293 cells stably expressing the human or feline FP receptor, or EP1, EP2, or EP4 receptors were washed with TME buffer, scraped from the bottom of the flasks, and homogenized for 30 sec using a Brinkman PT 10/35 polytron. TME buffer was added to achieve a final 40 ml volume in the centrifuge tubes (the composition of TME is 100 mM TRIS base, 20 mM MgCl2, […]; 10N HCl is added to achieve a pH of 7.4).
The cell homogenate was centrifuged at 19000 r.p.m. for 20 min at 4° C. using a Beckman Ti-60 rotor. The resultant pellet was resuspended in TME buffer to give a final 1 mg/ml protein concentration, as determined by Biorad assay. Radioligand binding competition assays vs. [^3H-]17-phenyl PGF2a (5 nM) were performed in a 100 μl volume for 60 min. Binding reactions were started by adding plasma membrane fraction. The reaction was terminated by the addition of 4 ml ice-cold TRIS-HCl buffer and rapid filtration through glass fiber GF/B filters using a Brandel cell harvester. The filters were washed 3 times with ice-cold buffer and oven dried for one hour.
[^3H—] PGE2 (specific activity 180 Ci mmol) was used as the radioligand for EP receptors. [^3H] 17-phenyl PGF2a was employed for FP receptor binding studies. […] 17-phenyl PGF2a and non-specific binding determined with 10^−5M of unlabeled PGE2, or 17-phenyl PGF2a, according to receptor subtype studied.

T2 sequence (P35408 whole entry): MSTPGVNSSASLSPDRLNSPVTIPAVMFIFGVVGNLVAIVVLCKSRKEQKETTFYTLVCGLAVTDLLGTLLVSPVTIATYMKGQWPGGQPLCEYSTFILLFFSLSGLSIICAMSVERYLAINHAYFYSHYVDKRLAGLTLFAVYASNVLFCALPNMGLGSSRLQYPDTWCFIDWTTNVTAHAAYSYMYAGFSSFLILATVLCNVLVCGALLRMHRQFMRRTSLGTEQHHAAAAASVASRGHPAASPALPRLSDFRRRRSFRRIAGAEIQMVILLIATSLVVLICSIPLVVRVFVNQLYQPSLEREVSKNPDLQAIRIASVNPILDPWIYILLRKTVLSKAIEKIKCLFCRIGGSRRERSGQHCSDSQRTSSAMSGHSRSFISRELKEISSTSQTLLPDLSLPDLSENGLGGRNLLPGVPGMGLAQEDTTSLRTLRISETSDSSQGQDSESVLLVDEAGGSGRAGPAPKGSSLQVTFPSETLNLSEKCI
T1 sequence (P43116 whole entry): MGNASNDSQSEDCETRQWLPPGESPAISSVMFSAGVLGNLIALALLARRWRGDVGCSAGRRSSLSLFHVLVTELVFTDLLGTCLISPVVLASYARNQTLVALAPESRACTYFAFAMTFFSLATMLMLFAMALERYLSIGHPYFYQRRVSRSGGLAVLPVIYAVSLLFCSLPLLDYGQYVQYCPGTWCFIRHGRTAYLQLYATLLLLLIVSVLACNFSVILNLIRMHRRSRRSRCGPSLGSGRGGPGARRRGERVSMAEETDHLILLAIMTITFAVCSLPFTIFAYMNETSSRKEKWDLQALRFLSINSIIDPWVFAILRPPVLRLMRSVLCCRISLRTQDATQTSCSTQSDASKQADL

## O=C(O)c1ccc(CCCN2[C@@H](/C=C/C(O)Cc3cccc(C(F)(F)F)c3)CCS2(=O)=O)s1 (stereo partly drawn) [Compound 14, 5-(3-((3R)-3-((E)-3-Hydroxy-4-(3-(trifluoromethyl)phenyl)but-1-en-1-yl)-1,1-dioxidoisothiazolidin-2-yl)propyl)thiophene-2-carboxylic acid]
[1]
  EC50: 38 nM
[2]
  EC50: 96 nM
[3]
  EC50: 1 nM
[4]
  EC50: 53 nM

— US9340534B2, “Compounds and methods for treating ocular diseases” (Allergan, Inc., priority 2014, dated 2016)
